In ChEMBL document CHEMBL2163210, “Aryl Piperazinyl Ureas as Inhibitors of Fatty Acid Amide Hydrolase (FAAH) in Rat, Dog, and Primate” (ACS Med Chem Lett, 2012):
Calls of active or inactive are those of the source. No cut-off for these calls is given here.

Key:
[1] = molecular target: T1, Fatty-acid amide hydrolase 1 (Rattus norvegicus, UniProt P97612)
T1 sequence (P97612 whole entry): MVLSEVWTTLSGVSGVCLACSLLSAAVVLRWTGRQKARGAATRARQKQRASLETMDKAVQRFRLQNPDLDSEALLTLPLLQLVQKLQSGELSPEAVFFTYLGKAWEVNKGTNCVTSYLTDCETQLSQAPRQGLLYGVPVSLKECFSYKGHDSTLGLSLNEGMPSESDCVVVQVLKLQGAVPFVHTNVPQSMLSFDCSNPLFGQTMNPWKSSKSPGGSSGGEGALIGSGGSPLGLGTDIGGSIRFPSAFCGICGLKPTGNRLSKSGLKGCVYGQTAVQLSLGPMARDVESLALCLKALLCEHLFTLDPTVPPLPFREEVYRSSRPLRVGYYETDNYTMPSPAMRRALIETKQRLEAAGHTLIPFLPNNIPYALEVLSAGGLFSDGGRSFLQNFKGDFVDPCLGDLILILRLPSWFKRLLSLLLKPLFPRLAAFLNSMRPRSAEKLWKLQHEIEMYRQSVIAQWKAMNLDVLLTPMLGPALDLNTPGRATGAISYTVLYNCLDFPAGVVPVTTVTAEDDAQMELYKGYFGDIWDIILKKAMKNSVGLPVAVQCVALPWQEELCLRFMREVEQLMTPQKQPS
Description: Inhibition of rat FAAH after 1 hr

[2] = molecular target: T2, Fatty-acid amide hydrolase 1 (Homo sapiens, UniProt O00519); assay: Inhibition of human FAAH after 1 hr
T2 sequence (O00519 whole entry): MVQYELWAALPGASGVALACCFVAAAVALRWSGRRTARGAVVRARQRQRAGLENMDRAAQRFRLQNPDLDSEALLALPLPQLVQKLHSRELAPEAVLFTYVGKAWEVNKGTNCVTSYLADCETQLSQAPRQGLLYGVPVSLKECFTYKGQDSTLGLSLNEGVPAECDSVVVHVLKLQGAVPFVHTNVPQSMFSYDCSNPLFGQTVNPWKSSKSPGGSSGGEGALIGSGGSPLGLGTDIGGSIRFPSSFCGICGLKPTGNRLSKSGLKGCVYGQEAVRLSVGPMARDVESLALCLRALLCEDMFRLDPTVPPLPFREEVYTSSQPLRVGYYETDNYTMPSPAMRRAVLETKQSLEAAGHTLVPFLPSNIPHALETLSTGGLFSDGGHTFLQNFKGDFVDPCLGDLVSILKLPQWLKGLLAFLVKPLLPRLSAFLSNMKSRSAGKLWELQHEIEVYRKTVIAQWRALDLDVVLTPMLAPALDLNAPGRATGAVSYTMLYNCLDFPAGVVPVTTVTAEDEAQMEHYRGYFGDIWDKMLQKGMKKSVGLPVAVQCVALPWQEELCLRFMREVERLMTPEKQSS

Plasma = assay: Drug uptake in po dosed rat plasma; format: ADME, organism-based; conditions: in vivo
Rattus norvegicus [3] = assay: Volume of distribution at steady state in rat at 0.3 to 10 mg/kg, po; format: ADME, organism-based; set-up: dose 0.3-10 mg/kg, route oral; conditions: in vivo
[4] = Oral bioavailability in Beagle dog at 5 mg/kg; format: ADME, organism-based, Canis lupus familiaris; conditions: in vivo
[5] = Plasma concentration in rat at 3 mg/kg, po at 6 hrs; format: ADME, organism-based; set-up: dose 3 mg/kg, route oral
[6] = Ratio of drug level in brain to plasma in rat at 0.3 to 10 mg/kg, po; format: ADME, organism-based; set-up: dose 0.3-10 mg/kg, route oral; conditions: read-out: BPR
[7] = Clearance in rat at 0.3 to 10 mg/kg, po; format: ADME, organism-based; set-up: dose 0.3-10 mg/kg, route oral; conditions: in vivo
Rattus norvegicus [8] = assay: Inhibition of rat FAAH assessed as increase in plasma anandamide level at 3 mg/kg, po at 4 hrs relative to control; format: functional
Cynomolgus monkey [9] = assay: Inhibition of cynomolgus monkey FAAH assessed as increase in plasma N-oleoylethanolamide level at 1 mg/kg, iv at 4 hrs relative to control; format: functional; conditions: Macaca fascicularis
Canis familiaris [10] = assay: Inhibition of Beagle dog FAAH assessed as increase in plasma N-palmitoylethanolamide level at 1 mg/kg, iv and 5 mg/kg, po at 6 to 8 hrs relative to control; format: functional, Canis lupus familiaris
[11] = Clearance in Beagle dog at 1 mg/kg, iv and 5 mg/kg, po; format: ADME, organism-based, Canis lupus familiaris; conditions: in vivo
Brain = assay: Drug uptake in po dosed rat brain; format: ADME, organism-based; conditions: in vivo
[12] = Plasma concentration in rat at 3 mg/kg, po at 12 hrs; format: ADME, organism-based; set-up: dose 3 mg/kg, route oral
[13] = Oral bioavailability in cynomolgus monkey at 5 mg/kg; format: ADME, organism-based, Macaca fascicularis; conditions: in vivo
[14] = Plasma concentration in rat at 3 mg/kg, po at 24 hrs; format: ADME, organism-based; set-up: dose 3 mg/kg, route oral
Cynomolgus monkey [15] = assay: Inhibition of cynomolgus monkey FAAH assessed as increase in plasma anandamide level at 1 mg/kg, iv at 4 hrs relative to control; format: functional; conditions: Macaca fascicularis
Rattus norvegicus [16] = assay: Inhibition of FAAH in rat at 3 mg/kg, po at 12 hrs; format: functional
[17] = Volume of distribution at steady state in cynomolgus monkey at 1 mg/kg, iv and 5 mg/kg, po; format: ADME, organism-based, Macaca fascicularis; conditions: in vivo, read-out: Vdss
[18] = Volume of distribution at steady state in Beagle dog at 1 mg/kg, iv and 5 mg/kg, po; format: ADME, organism-based, Canis lupus familiaris; conditions: in vivo, read-out: Vdss
[19] = molecular target: T3, Fatty-acid amide hydrolase 2 (Homo sapiens, UniProt Q6GMR7); assay: Inhibition of FAAH2
T3 sequence (Q6GMR7 whole entry): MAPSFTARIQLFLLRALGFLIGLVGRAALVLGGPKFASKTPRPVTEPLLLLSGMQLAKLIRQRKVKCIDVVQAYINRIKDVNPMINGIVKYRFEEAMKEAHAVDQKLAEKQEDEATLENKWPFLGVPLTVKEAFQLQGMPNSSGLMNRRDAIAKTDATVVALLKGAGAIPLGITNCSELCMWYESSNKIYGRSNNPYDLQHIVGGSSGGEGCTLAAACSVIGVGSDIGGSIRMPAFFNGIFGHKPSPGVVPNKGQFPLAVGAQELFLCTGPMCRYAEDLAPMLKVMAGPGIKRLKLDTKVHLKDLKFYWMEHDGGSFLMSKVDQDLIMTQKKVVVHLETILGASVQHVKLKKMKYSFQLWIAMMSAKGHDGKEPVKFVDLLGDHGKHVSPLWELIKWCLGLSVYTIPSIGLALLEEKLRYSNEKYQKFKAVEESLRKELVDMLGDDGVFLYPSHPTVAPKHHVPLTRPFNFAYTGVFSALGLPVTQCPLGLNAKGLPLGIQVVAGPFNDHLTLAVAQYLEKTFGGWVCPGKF

[20] = Clearance in cynomolgus monkey at 1 mg/kg, iv and 5 mg/kg, po; format: ADME, organism-based, Macaca fascicularis; conditions: in vivo
Rattus norvegicus [21] = assay: Inhibition of rat FAAH assessed as increase in brain N-palmitoylethanolamide level at 10 mg/kg, po at 4 hrs relative to control; format: functional
[22] = Oral bioavailability in rat at 0.3 to 10 mg/kg; format: ADME, organism-based; conditions: in vivo
Rattus norvegicus [23] = assay: Apparent volume of distribution in rat at 0.3 to 10 mg/kg, po; format: ADME, organism-based; set-up: dose 0.3-10 mg/kg, route oral; conditions: in vivo
Canis familiaris [24] = assay: Inhibition of Beagle dog FAAH assessed as increase in plasma anandamide level at 1 mg/kg, iv and 5 mg/kg, po at 2 to 3 hrs relative to control; format: functional, Canis lupus familiaris
Rattus norvegicus [25] = assay: Inhibition of rat FAAH assessed as increase in plasma N-palmitoylethanolamide level at 3 mg/kg, po at 4 hrs relative to control; format: functional
[26] = Apparent volume of distribution in cynomolgus monkey at 1 mg/kg, iv and 5 mg/kg, po; format: ADME, organism-based, Macaca fascicularis; conditions: in vivo, read-out: Vz
Rattus norvegicus [27] = assay: Inhibition of rat FAAH assessed as increase in brain anandamide level at 10 mg/kg, po at 4 hrs relative to control; format: functional
Cynomolgus monkey [28] = assay: Inhibition of cynomolgus monkey FAAH assessed as increase in plasma N-palmitoylethanolamide level at 1 mg/kg, iv at 4 hrs relative to control; format: functional; conditions: Macaca fascicularis
Canis familiaris [29] = assay: Inhibition of Beagle dog FAAH assessed as increase in plasma N-oleoylethanolamide level at 1 mg/kg, iv and 5 mg/kg, po at 2 to 3 hrs relative to control; format: functional, Canis lupus familiaris
Rattus norvegicus [30] = assay: Inhibition of rat FAAH assessed as increase in brain N-oleoylethanolamide level at 10 mg/kg, po at 4 hrs relative to control; format: functional
[31] = Plasma concentration in rat at 3 mg/kg, po at 4 hrs; format: ADME, organism-based; set-up: dose 3 mg/kg, route oral
Rattus norvegicus [32] = assay: Inhibition of rat FAAH assessed as increase in plasma N-oleoylethanolamide level at 3 mg/kg, po at 4 hrs relative to control; format: functional
[33] = Apparent volume of distribution in Beagle dog at 1 mg/kg, iv and 5 mg/kg, po; format: ADME, organism-based, Canis lupus familiaris; conditions: in vivo, read-out: Vz
[34] = Solubility of the compound in deionized water; format: physicochemical
Rattus norvegicus [35] = species on record: Rattus norvegicus; conditions: 3 mg/kg
Description: Inhibition of FAAH in rat at 3 mg/kg, po at 24 hrs

Rattus norvegicus [36] = species on record: Rattus norvegicus; conditions: 3 mg/kg; remark: listed apart in the source
Description: Inhibition of FAAH in rat at 3 mg/kg, po at 48 hrs

O=C(Nc1ccccc1)N1CCN(Cc2ccc(Oc3ccccc3)cc2)CC1
IC50 [1]: > 10000 nM
IC50 [2]: 2830 nM

O=C(Nc1ccccc1)N1CCN(Cc2ccc(Oc3ccc(Cl)cc3)cc2)CC1
IC50 [1]: 4000 nM
IC50 [2]: 62 nM

O=C(Nc1ccccc1)N1CCN(Cc2cccc(C(F)(F)F)c2)CC1
IC50 [1]: 830 nM
IC50 [2]: 350 nM

O=C(Nc1cccnc1)N1CCN(Cc2cccc(Oc3ccc(Cl)cc3)c2)CC1 [listing 1 of 2 here]
Cp (Plasma): Dose-dependent effect
Vdss (Rattus norvegicus [3]): 3.2 L/kg
bioavailability [4]: 39%
concentration at 6 h [5]: 600 nM
Kp [6]: 2.62
CL/F [7]: 11.5 mL/min/kg
fold change (FC) (Rattus norvegicus [8]): 3
inhibition in vivo at 1 mg/kg (Cynomolgus monkey [9]): 150%
fold change (FC) (Canis familiaris [10]): >30
clearance [11]: 38.3 mL/min/kg
Drug uptake (Brain): Dose-dependent effect
concentration at 12 h [12]: 200 nM
bioavailability [13]: 62%
concentration at 24 h [14]: 15 nM
inhibition in vivo at 1 mg/kg (Cynomolgus monkey [15]): 300%
inhibition in vivo at 3 mg/kg (Rattus norvegicus [16]): 90%
Vd [17]: 1.89 L/kg
Vd [18]: 1.24 L/kg
IC50 [19]: > 10000 nM
clearance [20]: 25.3 mL/min/kg
fold change (FC) (Rattus norvegicus [21]): 3.7
bioavailability [22]: 53%
Vz (Rattus norvegicus [23]): 8.3 L/kg
fold change (FC) (Canis familiaris [24]): >30
fold change (FC) (Rattus norvegicus [25]): 2.25
Vd [26]: 2.18 L/kg
fold change (FC) (Rattus norvegicus [27]): 1.75
inhibition in vivo at 1 mg/kg (Cynomolgus monkey [28]): 150%
fold change (FC) (Canis familiaris [29]): >30
fold change (FC) (Rattus norvegicus [30]): 3.25
concentration at 4 h [31]: 800 nM
fold change (FC) (Rattus norvegicus [32]): 1.9
Vd [33]: 1.4 L/kg

COc1ccc(CN2CCN(C(=O)Nc3ccccc3)CC2)cc1
IC50 [2]: 490 nM

O=C(Nc1ccccc1)N1CCN(Cc2cccc(Oc3ccccc3)c2)CC1
IC50 [1]: 6670 nM
IC50 [2]: 74 nM

O=C(Nc1ccccc1)N1CCN(Cc2ccccc2Cl)CC1
IC50 [1]: > 10000 nM
IC50 [2]: 4670 nM

O=C(Nc1ccncn1)N1CCN(Cc2cccc(Oc3ccc(Cl)cc3)c2)CC1
IC50 [1]: 1500 nM
IC50 [2]: 41 nM

Cl.O.O=C(Nc1cccnc1)N1CCN(Cc2cccc(Oc3ccc(Cl)cc3)c2)CC1
solubility [34]: > 20 mg/mL

O=C(Nc1ccccc1)N1CCN(Cc2ccc(F)cc2)CC1
IC50 [1]: > 10000 nM
IC50 [2]: 2770 nM

O=C(Nc1cccnc1)N1CCN(Cc2cccc(Oc3ccc(Cl)cc3)c2)CC1 [listing 2 of 2 here]
inhibition (Rattus norvegicus [35]): inactive
inhibition (Rattus norvegicus [36]): inactive

O=C(Nc1ccncc1)N1CCN(Cc2cccc(Oc3ccc(Cl)cc3)c2)CC1
IC50 [1]: 520 nM
IC50 [2]: 15 nM

Cc1ccc(Oc2cccc(CN3CCN(C(=O)Nc4ccccc4)CC3)c2)cc1
IC50 [1]: 640 nM
IC50 [2]: 11 nM

O=C(Nc1ccccc1)N1CCN(Cc2cccc(Cl)c2)CC1
IC50 [1]: 5600 nM
IC50 [2]: 840 nM
